Measured values published in paper PMC4368189, “YCZ-18 Is a New Brassinosteroid Biosynthesis Inhibitor” (PLoS ONE, 2015).
pKd: −log10 of the molar value.

Biological target: T1, CYP90D1 (Arabidopsis thaliana, UniProt Q94IA6)
T1 construct: CYP90D1 mature protein, expressed in E. coli from pCold-GST; fusion cleaved with HRV3C protease
T1 sequence (Q94IA6 1-491): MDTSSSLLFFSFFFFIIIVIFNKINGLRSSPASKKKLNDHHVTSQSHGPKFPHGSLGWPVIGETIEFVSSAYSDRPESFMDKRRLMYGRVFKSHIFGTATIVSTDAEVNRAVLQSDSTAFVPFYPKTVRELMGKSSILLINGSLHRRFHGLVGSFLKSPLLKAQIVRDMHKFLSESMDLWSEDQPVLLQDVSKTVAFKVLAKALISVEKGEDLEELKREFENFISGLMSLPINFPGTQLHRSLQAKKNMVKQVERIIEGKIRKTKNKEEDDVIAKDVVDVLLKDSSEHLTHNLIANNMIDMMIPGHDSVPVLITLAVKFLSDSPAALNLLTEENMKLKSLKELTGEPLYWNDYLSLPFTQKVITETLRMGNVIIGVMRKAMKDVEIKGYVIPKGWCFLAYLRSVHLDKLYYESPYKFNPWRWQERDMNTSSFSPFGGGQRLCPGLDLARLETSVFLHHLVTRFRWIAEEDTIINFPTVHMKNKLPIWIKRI
Test: optical difference spectroscopy (type II binding spectrum) titration of purified recombinant CYP90D1

pKd: ~6.10
SMILES: CCOc1ccccc1OCC1COC(Cn2cncn2)(c2ccc(Cl)cc2)O1 (stereo not shown) [YCZ-18]
